Conditions: for surface tension liquid-gas: Wilhelmg Plate Tensimeter; for mass density: Liquid, Vibrating tube method

CCOS(=O)(=O)[O-].CCn1cc[n+](C)c1 [1-ethyl-3-methylimidazolium ethyl sulfate]
Conditions	surface tension liquid-gas [mN/m]
292.91 K	47.16
298.26 K	46.9
303 K	46.59
308.61 K	46.35
313.41 K	46.12
322.71 K	45.5
332.09 K	45.08

Conditions	mass density [kg/m3]
293.15 K, 100 kPa	1241.3
293.15 K, 101.33 kPa	1241.37
293.15 K, 250 kPa	1241.4
293.15 K, 500 kPa	1241.4
293.15 K, 1000 kPa	1241.7
293.15 K, 1990 kPa	1242.1
293.15 K, 4990 kPa	1243.3
293.15 K, 10010 kPa	1245.3
293.15 K, 14990 kPa	1247.2
293.15 K, 20000 kPa	1249.2
293.15 K, 24990 kPa	1251.1
293.15 K, 30010 kPa	1253
293.15 K, 35000 kPa	1254.8
293.15 K, 40000 kPa	1256.6
293.15 K, 45000 kPa	1258.4
293.15 K, 50000 kPa	1260.2
293.15 K, 55000 kPa	1262
293.15 K, 60000 kPa	1263.7
294.15 K, 101.33 kPa	1240.67
295.15 K, 101.33 kPa	1239.97
296.15 K, 101.33 kPa	1239.28
297.15 K, 101.33 kPa	1238.58
298.15 K, 101.33 kPa	1237.88
299.15 K, 101.33 kPa	1237.19
300.15 K, 101.33 kPa	1236.5
301.15 K, 101.33 kPa	1235.81
302.15 K, 101.33 kPa	1235.12
303.15 K, 100 kPa	1234.3
303.15 K, 101.33 kPa	1234.43
303.15 K, 250 kPa	1234.4
303.15 K, 500 kPa	1234.5
303.15 K, 1000 kPa	1234.7
303.15 K, 2010 kPa	1235.1
303.15 K, 4990 kPa	1236.3
303.15 K, 10010 kPa	1238.4
303.15 K, 14990 kPa	1240.4
303.15 K, 20000 kPa	1242.4
303.15 K, 24990 kPa	1244.3
303.15 K, 30010 kPa	1246.3
303.15 K, 35010 kPa	1248.1
303.15 K, 40000 kPa	1250
303.15 K, 45000 kPa	1251.8
303.15 K, 50000 kPa	1253.6
303.15 K, 55000 kPa	1255.4
303.15 K, 60000 kPa	1257.1
304.15 K, 101.33 kPa	1233.74
305.15 K, 101.33 kPa	1233.05
306.15 K, 101.33 kPa	1232.37
307.15 K, 101.33 kPa	1231.69
308.15 K, 101.33 kPa	1231
309.15 K, 101.33 kPa	1230.32
310.15 K, 101.33 kPa	1229.64
311.15 K, 101.33 kPa	1228.96
312.15 K, 101.33 kPa	1228.28
313.15 K, 100 kPa	1227.5
313.15 K, 101.33 kPa	1227.61
313.15 K, 250 kPa	1227.5
313.15 K, 500 kPa	1227.6
313.15 K, 2000 kPa	1228.3
313.15 K, 4990 kPa	1229.5
313.15 K, 10010 kPa	1231.7
313.15 K, 14990 kPa	1233.7
313.15 K, 20000 kPa	1235.7
313.15 K, 25000 kPa	1237.6
313.15 K, 30010 kPa	1239.6
313.15 K, 35000 kPa	1241.5
313.15 K, 40000 kPa	1243.4
313.15 K, 44990 kPa	1245.3
313.15 K, 50000 kPa	1247.1
313.15 K, 54990 kPa	1248.9
313.15 K, 60000 kPa	1250.7
314.15 K, 101.33 kPa	1226.93
315.15 K, 101.33 kPa	1226.25
316.15 K, 101.33 kPa	1225.58
317.15 K, 101.33 kPa	1224.9
318.15 K, 101.33 kPa	1224.23
319.15 K, 101.33 kPa	1223.56
320.15 K, 101.33 kPa	1222.89
321.15 K, 101.33 kPa	1222.21
322.15 K, 101.33 kPa	1221.54
323.15 K, 100 kPa	1220.7
323.15 K, 101.33 kPa	1220.88
323.15 K, 250 kPa	1220.8
323.15 K, 500 kPa	1220.9
323.15 K, 1010 kPa	1221.1
323.15 K, 2010 kPa	1221.6
323.15 K, 4990 kPa	1222.9
323.15 K, 10010 kPa	1225
323.15 K, 14990 kPa	1227.1
323.15 K, 20010 kPa	1229.1
323.15 K, 25000 kPa	1231.1
323.15 K, 30010 kPa	1233.1
323.15 K, 35000 kPa	1235.1
323.15 K, 40000 kPa	1237
323.15 K, 45000 kPa	1238.9
323.15 K, 50000 kPa	1240.8
323.15 K, 55000 kPa	1242.6
323.15 K, 60000 kPa	1244.5
324.15 K, 101.33 kPa	1220.21
325.15 K, 101.33 kPa	1219.54
326.15 K, 101.33 kPa	1218.87
327.15 K, 101.33 kPa	1218.21
328.15 K, 101.33 kPa	1217.54
329.15 K, 101.33 kPa	1216.88
330.15 K, 101.33 kPa	1216.21
331.15 K, 101.33 kPa	1215.55
332.15 K, 101.33 kPa	1214.89
333.15 K, 100 kPa	1214.1
333.15 K, 101.33 kPa	1214.23
333.15 K, 250 kPa	1214.1
333.15 K, 500 kPa	1214.2
333.15 K, 1000 kPa	1214.4
333.15 K, 2010 kPa	1214.9
333.15 K, 5000 kPa	1216.2
333.15 K, 10010 kPa	1218.4
333.15 K, 14990 kPa	1220.5
333.15 K, 20000 kPa	1222.7
333.15 K, 24990 kPa	1224.7
333.15 K, 30000 kPa	1226.7
333.15 K, 34990 kPa	1228.7
333.15 K, 40000 kPa	1230.7
333.15 K, 45020 kPa	1232.6
333.15 K, 50000 kPa	1234.5
333.15 K, 54990 kPa	1236.4
333.15 K, 60000 kPa	1238.3
334.15 K, 101.33 kPa	1213.56
335.15 K, 101.33 kPa	1212.9
336.15 K, 101.33 kPa	1212.24
337.15 K, 101.33 kPa	1211.58
338.15 K, 101.33 kPa	1210.92
339.15 K, 101.33 kPa	1210.26
340.15 K, 101.33 kPa	1209.6
341.15 K, 101.33 kPa	1208.95
